Here are results for 19 compounds from patent publication US11352322B2, “Cyclopropyl-amide compounds as dual LSD1/HDAC inhibitors” (Jubilant Epicore LLC, priority 2016, dated 2022).

Data set [1] in a line: Metabolic stability in liver microsomes, MLM. As to conditions: 1 μM, NADPH.
Experimental: (§1) The microsomal suspension was prepared by adding liver microsomes to 100 mM potassium phosphate buffer (pH7.4) to give a final protein concentration of 0.5 mg/mL. The stock solution of NCE (10 mM in DMSO) was added to the microsomes to provide a final concentration of 1 μM. […] Samples were vortexed and centrifuged at 5,000 rpm for 10 min to remove proteins. Supernatant were analyzed on LC-MS/MS.
A further data set relates to MM1S. Nature of the data set: Anticancer activity: Alamar Blue assay, MM1S. It counts as cell-based. As to conditions: Homo sapiens, MM1.S, read-out: MM1S EC50.
Data set [2] concerns the target HDAC6 human recombinant enzyme (Homo sapiens (Human), UniProt Q9UBN7). In words: Histone Deacetylase Assay (BPS Biosciences), HDAC6. In kind it is biochemical. The source says: Histone Deacetylase Assay (BPS Biosciences)
Histone deacetylase assay was done as per manufacturer's instructions.

The target of a further data set is LSD1 (Homo sapiens (Human), UniProt O60341). Nature of the data set: TR-FRET Assay for LSD1.
A short description of data set [3]: Metabolic stability in liver microsomes, HLM. As to conditions: 1 μM, NADPH.
Experimental: as §1

Counter-ions that a name gives are not always drawn. Like-named read-outs stand apart in the source and are kept apart here. Where only a bound is given, the exact number is not on record here.

Sequence of HDAC6 human recombinant enzyme (Q9UBN7 whole entry): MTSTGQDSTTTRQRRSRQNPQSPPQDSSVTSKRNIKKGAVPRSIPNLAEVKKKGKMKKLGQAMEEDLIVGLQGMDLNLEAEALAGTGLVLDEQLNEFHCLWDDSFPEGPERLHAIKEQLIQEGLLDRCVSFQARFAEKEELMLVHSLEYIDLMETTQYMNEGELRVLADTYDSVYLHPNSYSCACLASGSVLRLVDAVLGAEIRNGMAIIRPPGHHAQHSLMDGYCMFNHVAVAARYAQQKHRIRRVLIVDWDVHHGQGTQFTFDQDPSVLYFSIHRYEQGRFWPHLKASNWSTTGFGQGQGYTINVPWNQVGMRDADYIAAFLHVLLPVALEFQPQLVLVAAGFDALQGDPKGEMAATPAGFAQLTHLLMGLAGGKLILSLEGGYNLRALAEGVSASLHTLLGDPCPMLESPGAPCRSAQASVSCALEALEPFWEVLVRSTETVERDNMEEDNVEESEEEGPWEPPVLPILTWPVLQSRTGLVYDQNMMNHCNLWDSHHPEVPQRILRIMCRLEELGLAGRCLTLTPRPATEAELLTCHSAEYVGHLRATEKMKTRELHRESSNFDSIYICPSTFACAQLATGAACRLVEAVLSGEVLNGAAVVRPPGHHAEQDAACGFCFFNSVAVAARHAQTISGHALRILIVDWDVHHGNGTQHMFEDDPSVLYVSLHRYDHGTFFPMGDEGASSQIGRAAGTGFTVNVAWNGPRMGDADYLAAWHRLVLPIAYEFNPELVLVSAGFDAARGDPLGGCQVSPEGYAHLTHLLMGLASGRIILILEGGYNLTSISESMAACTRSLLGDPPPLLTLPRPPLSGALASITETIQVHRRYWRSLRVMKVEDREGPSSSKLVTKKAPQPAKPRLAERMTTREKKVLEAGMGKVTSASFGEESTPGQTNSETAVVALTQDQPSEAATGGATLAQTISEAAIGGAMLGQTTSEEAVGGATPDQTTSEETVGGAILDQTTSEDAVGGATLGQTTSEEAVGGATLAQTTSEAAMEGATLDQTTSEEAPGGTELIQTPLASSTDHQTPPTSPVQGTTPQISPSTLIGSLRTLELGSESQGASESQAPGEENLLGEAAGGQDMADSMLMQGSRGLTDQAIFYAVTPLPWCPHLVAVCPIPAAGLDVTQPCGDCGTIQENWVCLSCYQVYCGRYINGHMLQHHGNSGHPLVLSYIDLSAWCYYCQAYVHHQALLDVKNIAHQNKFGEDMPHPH
Experimental for LSD1: TR-FRET Assay for LSD1 (Perkin Elmer)
Tranylcypromine (TCP), LSD1 inhibitor was procured from Selleckchem. […] Stop Solution containing 300 μM tranylcypromine in 1× LANCE Detection Buffer was added to the wells and incubated for 5 min at RT. Then, Detection mix containing 2 nM Eu-Ab and 50 nM ULight-Streptavidin in 1× LANCE Detection Buffer was prepared and added to the reaction mix. This mixture was incubated for 1 hour at room temperature.

In the case of `O=C(NO)c1ccc(/C=C/C(=O)N2CCC(CNC3CC3c3ccc(-c4cncnc4)cc3)CC2)cc1` (stereo not shown) [Example 117, (E)-N-hydroxy-4-(3-oxo-3-(4-(((2-(4-(pyrimidin-5-yl)phenyl)cyclopropyl)amino)methyl)piperidin-1-yl)prop-1-en-1-yl)benzamide TFA Salt], the “Metabolic stability MLM % remaining in 30 min” value in data set [1] is on record as 82%. For the same compound, in the data set with MM1S, the EC50 was 460 nM. In addition, the values for the IC50 (in data set [2]; on LSD1 (read-out: LSD1 IC50)) were 74 nM and 46 nM, respectively. Besides, the “Metabolic stability HLM % remaining in 30 min” value in data set [3] amounted to 80%.

As to `O=C(NO)c1ccc(C(=O)NCCN2CCC(CNC3CC3c3ccc(F)c(F)c3)CC2)cc1` (stereo not shown) [Example 90, N1-(2-(4-(((2-(3,4-difluorophenyl)cyclopropyl)amino)methyl)piperidin-1-yl)ethyl)-N4-hydroxyterephthalamide TFA Salt], the “Metabolic stability MLM % remaining in 30 min” value in data set [1] came out at 93%. In the data set on MM1S, the EC50 worked out at 339 nM. In addition, the figures for the IC50 (in data set [2]; on LSD1 (read-out: LSD1 IC50)) were 170 nM and 21 nM, respectively. Further, the “Metabolic stability HLM % remaining in 30 min” value in data set [3] stood at 80%.

Consider `Cn1cc(-c2ccc(C3CC3NCC3CCN(Cc4ccc(C(=O)Nc5ccccc5N)cc4)CC3)cc2)ccc1=O` (stereo not shown) [Example 141, N-(2-aminophenyl)-4-((4-(((2-(4-(1-methyl-6-oxo-1,6-dihydropyridin-3-yl)phenyl)cyclopropyl)amino)methyl)piperidin-1-yl)methyl)benzamide TFA Salt], for which the “Metabolic stability MLM % remaining in 30 min” value in data set [1] was found to be 75%. In the data set with MM1S, the EC50 was 194 nM. For the same compound, the IC50 in data set [2] is above 10000 nM; on LSD1 (read-out: LSD1 IC50) it was 30 nM. Also, the “Metabolic stability HLM % remaining in 30 min” value in data set [3] is listed as 88%.

As for `Nc1ccccc1NC(=O)c1ccc(CC(=O)N2CCC(CNC3CC3c3ccc(F)cc3)CC2)cc1` (stereo not shown) [Example 147, N-(2-aminophenyl)-4-(2-(4-(((2-(4-fluorophenyl)cyclopropyl)amino)methyl)piperidin-1-yl)-2-oxoethyl)benzamide TFA Salt], the “Metabolic stability MLM % remaining in 30 min” value in data set [1] is on record as below 5%. Besides, the EC50 with MM1S was 29 nM. The results for the IC50 (in data set [2]; on LSD1 (read-out: LSD1 IC50)) were above 10000 nM and 32 nM, respectively. In addition, in data set [3], the “Metabolic stability HLM % remaining in 30 min” value is on record as 48%.

On to `Nc1ccccc1NC(=O)c1ccc(OCCNC2CC2c2ccc(F)cc2)cc1` (stereo not shown) [Example 148, N-(2-aminophenyl)-4-(2-((2-(4-fluorophenyl)cyclopropyl)amino)ethoxy) benzamide TFA Salt], for which, in data set [1], the “Metabolic stability MLM % remaining in 30 min” value is recorded as 34%. Besides, in the data set on MM1S (MM1S cells), the concentration giving a half-maximal response (EC50) turned out to be 40 nM. In addition, the IC50 is above 10000 nM in data set [2] and 24 nM at LSD1 (read-out: LSD1 IC50). Besides, in data set [3], the “Metabolic stability HLM % remaining in 30 min” value came out at 46%.

As to `Nc1ccc(F)cc1NC(=O)c1ccc(CCCN2CCC(CNC3CC3c3ccc(F)cc3)CC2)cc1` (stereo not shown) [Example 132, N-(2-amino-5-fluorophenyl)-4-(3-(4-(((2-(4-fluorophenyl)cyclopropyl)amino)methyl)piperidin-1-yl)propyl)benzamide TFA Salt], the “Metabolic stability MLM % remaining in 30 min” value in data set [1] was determined as 80%. In the data set on MM1S, the EC50 was found to be 21 nM. In addition, the IC50 is above 10000 nM in data set [2] and 5 nM on LSD1 (read-out: LSD1 IC50). Besides, in data set [3], the “Metabolic stability HLM % remaining in 30 min” value worked out at 81%.

For the compound `O=C(NO)c1ccc(OCCN2CCC(CNC3CC3c3ccccc3)CC2)cc1` (stereo not shown) [Example 99, N-hydroxy-4-(2-(4-(((2-phenylcyclopropyl)amino)methyl)piperidin-1-yl)ethoxy)benzamide TFA Salt], the “Metabolic stability MLM % remaining in 30 min” value in data set [1] was 76%. Also, the EC50 in the data set on MM1S stood at 27 nM. The values for the IC50 (in data set [2]; at LSD1 (read-out: LSD1 IC50)) were 51 nM and 4 nM, respectively. Also, the “Metabolic stability HLM % remaining in 30 min” value in data set [3] was determined as 63%.

With `Nc1ccccc1NC(=O)c1ccc(CCC(=O)N2CCC(CNC3CC3c3ccccc3)CC2)cc1` (stereo not shown) [Example 134, N-(2-aminophenyl)-4-(3-oxo-3-(4-(((2-phenylcyclopropyl)amino)methyl)piperidin-1-yl)propyl)benzamide TFA Salt], the “Metabolic stability MLM % remaining in 30 min” value in data set [1] is 10/10%. In addition, the EC50 in the data set with MM1S was found to be 174 nM. In addition, the IC50 in data set [2] is above 10000 nM; on LSD1 (read-out: LSD1 IC50) it was 42 nM. Moreover, the “Metabolic stability HLM % remaining in 30 min” value in data set [3] is on record as 10/10%.

Turning to `Nc1ccccc1NC(=O)c1ccc(/C=C/C(=O)N2CC(CNC3CC3c3ccc(F)cc3)C2)cc1` (stereo not shown) [Example 157, (E)-N-(2-aminophenyl)-4-(3-(3-(((2-(4-fluorophenyl)cyclopropyl)amino)methyl)azetidin-1-yl)-3-oxoprop-1-en-1-yl)benzamide TFA Salt], in data set [1], the “Metabolic stability MLM % remaining in 30 min” value was determined as 63%. In addition, the concentration giving a half-maximal response (EC50) in the data set on MM1S is 167 nM. For the same compound, the figures for the IC50 (in data set [2]; on LSD1 (read-out: LSD1 IC50)) were above 10000 nM and 58 nM, respectively. Further, the “Metabolic stability HLM % remaining in 30 min” value in data set [3] came to 53%.

Regarding `O=C(NO)c1ccc(CCCN2CC(CNC3CC3c3ccc(-c4ccc(F)cc4)cc3)C2)cc1` (stereo not shown) [Example 58, 4-(3-(3-(((2-(4′-fluoro-[1,1′-biphenyl]-4-yl)cyclopropyl)amino)methyl)azetidin-1-yl)propyl)-N-hydroxybenzamide TFA Salt], in data set [1], the “Metabolic stability MLM % remaining in 30 min” value is recorded as 91%. In the data set on MM1S, the 50% effective concentration (EC50) was 15 nM. In addition, the results for the half-maximal inhibitory concentration (IC50) (in data set [2]; at LSD1 (read-out: LSD1 IC50)) were 43 nM and 25 nM, respectively. Besides, the “Metabolic stability HLM % remaining in 30 min” value in data set [3] is listed as 85%.

For the compound `CN(C)CCNC(=O)c1ccc(C2CC2NCC2CCN(CCCc3ccc(C(=O)NO)cc3)CC2)cc1` (stereo not shown) [Example 55, N-(2-(dimethylamino)ethyl)-4-(2-(((1-(3-(4-(hydroxycarbamoyl)phenyl)propyl)piperidin-4-yl)methyl)amino)cyclopropyl)benzamide TFA Salt], the “Metabolic stability MLM % remaining in 30 min” value in data set [1] worked out at 36%. For the same compound, the IC50 in data set [2] worked out at 130 nM; at LSD1 (read-out: LSD1 IC50), 22 nM. In data set [3], the “Metabolic stability HLM % remaining in 30 min” value stood at 40%.

Regarding `Nc1ccccc1NC(=O)c1ccc(CCCn2cnc(CNC3CC3c3ccccc3)c2)cc1` (stereo not shown) [Example 136, N-(2-aminophenyl)-4-(3-(4-(((2-phenylcyclopropyl)amino)methyl)-1H-imidazol-1-yl)propyl)benzamide TFA Salt], in data set [1], the “Metabolic stability MLM % remaining in 30 min” value was 3%. Moreover, in the data set on MM1S, the EC50 amounted to 174 nM. For the same compound, the half-maximal inhibitory concentration (IC50) in data set [2] was above 10000 nM; at LSD1 (read-out: LSD1 IC50), 570 nM. The “Metabolic stability HLM % remaining in 30 min” value in data set [3] is given as 4%.

As for `Nc1ccccc1NC(=O)c1ccc(CN2CCC(CN[C@@H]3C[C@H]3c3ccccc3)CC2)cc1` [Example 140, N-(2-aminophenyl)-4-((4-((((1R,2S)-2-phenylcyclopropyl)amino)methyl)piperidin-1-yl)methyl)benzamide TFA Salt], the “Metabolic stability MLM % remaining in 30 min” value in data set [1] amounted to 83%. The EC50 in the data set with MM1S came to 2 nM. In addition, the figures for the IC50 (in data set [2]; at LSD1 (read-out: LSD1 IC50)) were above 10000 nM and 2 nM, respectively. Further, the “Metabolic stability HLM % remaining in 30 min” value in data set [3] is on record as 85%.

In the case of `O=C(NO)c1csc(CCCN2CCC(CNC3CC3c3ccccc3)CC2)n1.O=C(O)C(F)(F)F` (stereo not shown) [Example 110, N-hydroxy-2-(3-(4-(((2-phenylcyclopropyl)amino)methyl)piperidin-1-yl)propyl)thiazole-4-carboxamide TFA Salt], the “Metabolic stability MLM % remaining in 30 min” value in data set [1] was 95%. For the same compound, the EC50 with MM1S (MM1S cells) was above 10000 nM. For the same compound, the values for the IC50 (in data set [2]; on LSD1) were above 10000 nM and 26 nM, respectively. In addition, the “Metabolic stability HLM % remaining in 30 min” value in data set [3] was 88%.

`CN1C(=O)C(C)(C)c2cc(C3CC3NCC3CCN(CCCc4ccc(C(=O)NO)cc4)CC3)ccc21` (stereo not shown) [Example 81, N-hydroxy-4-(3-(4(((2-(1,3,3,-trimethyl-2-oxoindoline-5-yl)cyclopropyl)amino)methyl)piperidine-1-yl)propyl)benzamide TFA Salt]: in data set [1], the “Metabolic stability MLM % remaining in 30 min” value is listed as >95/>95%. Further, the 50% effective concentration (EC50) in the data set on MM1S (MM1S cells) is 22 nM. For the same compound, the IC50 was 125 nM in data set [2] and 394 nM at LSD1 (read-out: LSD1 IC50). Moreover, the “Metabolic stability HLM % remaining in 30 min” value in data set [3] was >95/>95%.

As to `O=C(NO)c1cnc(NCCN2CCC(CNC3CC3c3ccc(F)cc3)CC2)nc1` (stereo not shown) [Example 102, 2-((2-(4-(((2-(4-fluorophenyl)cyclopropyl)amino)methyl)piperidin-1-yl)ethyl)amino)-N-hydroxypyrimidine-5-carboxamide TFA Salt], in data set [1], the “Metabolic stability MLM % remaining in 30 min” value is reported as >99/>99%. Further, the EC50 in the data set with MM1S amounted to 5 nM. Also, the IC50 in data set [2] is 75 nM; at LSD1 (read-out: LSD1 IC50), 22 nM. For the same compound, the “Metabolic stability HLM % remaining in 30 min” value in data set [3] is given as >99/>99%.

Turning to `O=C(NO)c1ccc(CCCN2CCC(CNC3CC3c3ccc(-c4ccc(C(F)(F)F)nc4)cc3)CC2)cc1` (stereo not shown) [Example 66, N-hydroxy-4-(3-(4-(((2-(4-(6-(trifluoromethyl)pyridin-3-yl)phenyl)cyclopropyl)amino)methyl)piperidin-1-yl)propyl)benzamide TFA Salt], the “Metabolic stability MLM % remaining in 30 min” value in data set [1] turned out to be 85%. In addition, the IC50 in data set [2] turned out to be 100 nM; on LSD1 (read-out: LSD1 IC50) it was 19 nM. Further, in data set [3], the “Metabolic stability HLM % remaining in 30 min” value was 79%.

`O=C(NO)c1cccc(CNC2CC2c2ccccc2)c1` (stereo not shown) [Example 27, N-hydroxy-3-(((2-phenylcyclopropyl)amino)methyl)benzamide TFA]: the “Metabolic stability MLM % remaining in 30 min” value in data set [1] stood at 51%. Moreover, the IC50 in data set [2] is above 1000 nM; at LSD1 (read-out: LSD1 IC50), 16 nM. In addition, the “Metabolic stability HLM % remaining in 30 min” value in data set [3] is 75%.

For `Cn1ccc(-c2ccc(C3CC3NCC3CCN(CCCc4ccc(C(=O)NO)cc4)CC3)cc2)cc1=O` (stereo not shown) [Example 60, N-hydroxy-4-(3-(4-(((2-(4-(1-methyl-2-oxo-1,2-dihydropyridin-4-yl)phenyl)cyclopropyl)amino)methyl)piperidin-1-yl)propyl)benzamide TFA Salt], the “Metabolic stability MLM % remaining in 30 min” value in data set [1] came to 72%. The IC50 is 46 nM in data set [2] and 21 nM at LSD1 (read-out: LSD1 IC50). In data set [3], the “Metabolic stability HLM % remaining in 30 min” value was 73%.
